Laboratory results taken from US5846939A, “Use of a decapeptide with benzodiazepine-type activity for preparing medicines and food supplements” (Societe Cooperative Agricole Laitiere D'Artois Et Des …, priority 1994, dated 1998).

Assays:
[1] = molecular target: central benzodiazepine receptor; conditions: radioligand of the kit; cited from earlier work
[2] = system: anxiety in the rat (elevated plus-maze); assay: Tranquilizing activity, elevated plus-maze test; assay type: in vivo; conditions: intraperitoneal, diazepam 2 mg/kg, hydrolysate 3 mg/kg
Text: To measure anxiety in the rat, the elevated plus-maze test described by Pellow et al. (14) was used which is based on neophobia in the rat. The plus-maze had four branches that were 50 cm long and 10 cm wide. The two closed branches were surrounded by walls that were 25 cm high (the top being left open for observation) and the entire maze was 50 cm above the ground. The center of the maze communicated with the two open arms and the two closed arms.
The number of times the animal enters the open arms, the closed arms, and the total number of times the rat enters the arms are important parameters. The time passed in each type of branch was also measured. Other parameters (a total of 22) such as the number of times the rat stood up, the number of times it groomed itself (signs of anxiety), or latency of first entry into an open or closed branch were taken into account. […] Its entire behavior was filmed by video camera, which procedure served to avoid errors.
The control group (CTR) received an intraperitoneal injection of solvent only, which solvent was a mixture of gelatin and mannitol (0.5%/5%) dissolved in water. […] The animals in all of the groups were injected half an hour before going to the plus-maze. To begin the experiments, each rat was placed in the center of the apparatus.

SMILES | Ki [1] [nM] | number of entries into closed branches [2] | number of entries into open branches ([2]; control 1.5±0.3) | time spent in the open branches ([2]; control 19.3±4.4 s) [s]
CN1C(=O)CN=C(c2ccccc2F)c2cc([N+](=O)[O-])ccc21 [^3 H-methyl-flunitrazepam] | 1.2 | – | – | –
CN1C(=O)CN=C(c2ccccc2)c2cc(Cl)ccc21 [diazepam] | – | did not vary significantly | 3.0±0.4 | 70.1 ± 19.9
